Experimental data as given in BindingDB's records for doi:10.1016/j.chembiol.2008.07.013 (University of Connecticut, 2008).

These compounds were tested against T1, Dihydrofolate reductase (Candida glabrata (strain ATCC 2001 / BCRC 20586 / JCM 3761 / NBRC 0622 / NRRL Y-65 / CBS 138), UniProt Q6FPH0) (assay: Enzyme Inhibition Assay). Details: 25 °C.
T1 sequence (Q6FPH0 whole entry): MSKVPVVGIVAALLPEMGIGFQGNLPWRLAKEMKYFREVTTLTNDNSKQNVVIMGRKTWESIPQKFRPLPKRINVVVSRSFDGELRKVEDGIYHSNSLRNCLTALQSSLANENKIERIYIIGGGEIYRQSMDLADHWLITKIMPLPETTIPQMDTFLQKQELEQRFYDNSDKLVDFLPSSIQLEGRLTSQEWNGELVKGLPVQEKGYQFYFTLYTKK
Text: Enzyme inhibition assay using CgDHFR and hDHFR performed at 25 degree Celsius by monitoring the rate of enzyme-dependent NADPH oxidation at an absorbance of 340 nm over several minutes.

IC50 | SMILES
8.2 nM | CCc1nc(N)nc(N)c1C#CCc1cc(OC)ccc1OC [5-[3-(2,5-dimethoxyphenyl)prop-1-yn-1-yl]-6-ethylpyrimidine-2,4-diamine]
25 nM | COc1cc(C(C)C#Cc2c(C)nc(N)nc2N)cc(OC)c1OC (configuration not stated) [Propargyl-substituted antifolate, 8]
32 nM | COc1ccc(OC)c(CC#Cc2c(C)nc(N)nc2N)c1 [Propargyl-linked, 10]
30 nM | COc1cc([C@@H](C#Cc2c(C)nc(N)nc2N)OC)cc(OC)c1OC [JMC517532 Compound 10]
21 nM | COc1ccc(OC)c(CC#Cc2cnc(N)nc2N)c1 [5-[3-(2,5-dimethoxyphenyl)prop-1-yn-1-yl]pyrimidine-2,4-diamine]
22 nM | COc1cc(CC#Cc2cnc(N)nc2N)cc(OC)c1OC [JMC517532 Compound 3]
39 nM | COc1cc([C@@H](O)C#Cc2c(C)nc(N)nc2N)cc(OC)c1OC [Propargyl-substituted antifolate, 9]
